Series [1] concerns HepG2 cells. Also noted: method as in Araújo et al. 120. The conditions noted are these: ref Araújo et al. 120; read-out: cytotoxic concentration (compared with CC50 in HepG2); cited from earlier work.
The subject of series [2] is promastigote forms of Leishmania amazonensis PH8 strain. The series is described as follows: Leishmanicidal activity assay on promastigotes (Alamar Blue, 24 h). The format is cell-based. The conditions noted are these: Leishmania amazonensis, 10^6 parasites/mL. As for the experimental part:
Promastigote forms of Leishmania amazonensis (IFLA/BR/1967/PH8) were obtained from the Instituto Oswaldo Cruz Leishmania collection (CLIOC/Fiocruz). These cultures were maintained in Schneider’s Insect Medium, supplemented with 20% FBS and 1 μL/mL of Pen/Str at 26 °C. In vitro passages were conducted weekly, with promastigotes harvested during the late logarithmic phase for experiments on the 5th day of growth (Figure S1A).
MT was employed as the reference drug.
In general terms: Alamar Blue is a resazurin reagent that responds to reducing activity.

The subject of series [3] is ex vivo amastigote forms of Leishmania amazonensis LTB0016 strain. The series is described as follows: Cell death by flow cytometry, 7-AAD, ex vivo amastigotes. The conditions noted are these: IC50, 24 h, mean ± SD. (In general: In flow cytometry, cells or beads pass a laser one at a time.)
Series [4] deals with Leishmania amazonensis promastigote forms (PH8 strain).
Series [5] can be described thus: Cytotoxicity assay (Alamar Blue, 24 h) on J774.G8 macrophages. The format is cell-based, murine. The conditions noted are these: mouse, J774.G8 macrophages. As for the experimental part:
(§1) HepG2 cells (human hepatocellular carcinoma), VERO cells (African green monkey kidney), and J774.G8 macrophages (murine reticulosarcoma) were maintained in DMEM medium, supplemented with 10% FBS, 1% Pen/Str at 37 °C and 5% CO2 [70, 71]. For the cultivation of L929 fibroblasts (murine fibrosarcoma), RPMI 1640 medium without phenol red, supplemented with 2 mM L-glutamine, 10% FBS, and 1% Pen/Str, was used and maintained under the same conditions of temperature and CO2 as above.
(§2) J774.G8, VERO (10^5 cells/well), HepG2, L929 (0.5 × 10^5 cells/well) cells, and MPMs (3 × 10^5 cells/well) were centrifuged, resuspended in medium, plated in 96-well microplates, and incubated for 24 h under cultivation conditions. Subsequently, they were exposed to different concentrations of the compounds, serially diluted in medium to a final volume of 100 µL/well, and incubated for 24 h at 37 °C and 5% CO2. Cell viability was then assessed using the AB, and data were acquired by spectrophotometry. […] Untreated cells were used as negative controls, and cells exposed to the reference compound (MT) were used as positive controls. The Selectivity Index (SI) was calculated using the ratio SI = CC50 (mammalian cells)/IC50 (promastigote or amastigote forms of L. amazonensis).

Series [6] is described as follows: Cytotoxicity assay (Alamar Blue, 24 h) on HepG2 cells. The conditions noted are these: human, HepG2 cells. Format: cell-based, human. As for the experimental part: as §1, §2
Series [7] relates to HepG2 cells. The description is as above. Format: cell-based, human. The conditions noted are these: 0.5 × 10^5 cells/well. As for the experimental part: as §1, §2
The subject of series [8] is fibroblasts and macrophages. More on the design: method as in PMID 38917757. The conditions noted are these: MB without light treatment; cited from earlier work.
The subject of series [9] is ex vivo amastigote forms of L. amazonensis LTB0016 strain. The experiment in a line: Mitochondrial membrane potential (ΔΨm) by flow cytometry, TMRE, ex vivo amastigotes.
Series [10] is described as follows: Cytotoxicity assay (Alamar Blue, 24 h) on VERO cells. Format: cell-based, African green monkey. The conditions noted are these: African green monkey, VERO cells. Here is the method:
as §1, §2

Series [11] deals with ex vivo amastigote forms of L. amazonensis LTB0016 strain. The experiment in a line: Leishmanicidal activity assay on ex vivo amastigotes (Alamar Blue, 24 h). The conditions noted are these: Leishmania amazonensis, 24 h, read-out: IC50 Ama.
Source text: Ex vivo amastigote forms of L. amazonensis (MHOM/BR/77/LTB0016) were harvested and purified from lesions of male BALB/c mice. For this, a suspension containing 10^6 amastigotes was inoculated subcutaneously into the intraplantar region of the hind paw. After 30 days, the animals were euthanized, and their paws were excised and rinsed in 70% ethanol. The epidermis and necrotic tissues were mechanically dissociated. Subsequently, the paws were placed in Petri dishes containing RPMI 1640 medium supplemented with 5% FBS and 2% Pen/Str. […] The supernatant was transferred to another tube, homogenized with a syringe, and centrifuged at 764× g for another 15 min. The supernatant was discarded, and the pellet was resuspended in RPMI 1640 medium [69].
Promastigotes were kept at 26 °C, whereas amastigotes were kept at 32 °C. After 24 h, parasite viability was assessed using the AB colorimetric method, and the data were analyzed using a spectrophotometer as previously described [74]. […] Wells with medium and without parasites were used as blanks, and wells with medium and untreated parasites were used as negative controls. MT was employed as the reference drug.
In series [12] the test system is promastigote forms of Leishmania amazonensis PH8 strain. The experiment in a line: Cell death by flow cytometry, Annexin V/PI, promastigotes. The conditions noted are these: 200 μM, 24 h, preliminary assay (Figure S5); control 99.81%.
A short description of series [13]: Cytotoxicity assay (Alamar Blue, 24 h) on L929 fibroblasts. The conditions noted are these: mouse, L929 fibroblasts. The format is cell-based, murine. As for the experimental part:
as §1, §2

The subject of series [14] is promastigote forms of Leishmania amazonensis PH8 strain. The experiment in a line: Preliminary MB concentration assessment on promastigotes, Neubauer chamber counting, 72 h. The conditions noted are these: 3.13–200 μM tested. Format: cell-based. As for the experimental part: Deyvison Rhuan Vasco-dos-Santos, Juliana Almeida-Silva, Ludmila Ferreira de Almeida Fiuza,
Natalia Vacani-Martins, Zênis Novais da Rocha, Maria de Nazaré Correia Soeiro, Andrea Henriques-Pons,
Eduardo Caio Torres-Santos and Marcos André Vannier-Santos
Evaluation of parasite proliferation after 24 h (B2), 48 h (B3), and 72 h (B4) are shown. Viability was
assessed by counting in a Neubauer chamber. Data represents mean ± SD. (*) p < 0.05 when
compared to negative control by ANOVA and Tukey’s post-test. […]

Series [15] has the same test system. The series is described as follows: Mitochondrial membrane potential (ΔΨm) by flow cytometry, TMRE, promastigotes. The conditions noted are these: exposed to IC50, 24 h.
Another series deals with promastigotes. The conditions noted are these: MB without light treatment; cited from earlier work.
Series [16] deals with ex vivo amastigote forms of L. amazonensis LTB0016 strain. The experiment in a line: ROS production by flow cytometry, H2DCFDA, ex vivo amastigotes. Format: cell-based, Leishmania amazonensis. The conditions noted are these: exposed to IC50 (AA 10 µM), 24 h.
A further series concerns L. amazonensis. Also noted: method as in Cabral et al. 136. The conditions noted are these: MB treatment with PDT; ref Cabral et al. 136; cited from earlier work.
Series [17] is described as follows: Cytotoxicity assay (Alamar Blue, 24 h) on murine peritoneal macrophages. The format is cell-based, Swiss Webster mice. The conditions noted are these: male, Swiss Webster, mouse, murine peritoneal macrophages (MPMs, primary cells), 3 × 10^5 cells/well. As for the experimental part: Murine peritoneal macrophages—MPMs (primary cells)—were isolated from male Swiss Webster mice stimulated with 1 mL of 3% Brewer’s thioglycollate medium, administered intraperitoneally. After 96 h, the animals were euthanized, and the MPMs were collected by peritoneal lavage with approximately 10 mL of RPMI 1640 medium. The cell suspension was centrifuged at 382× g for 10 min, and the pellet was resuspended in medium supplemented with 5% FBS, 1% Pen/Str, and 2 mM L-glutamine. All cell cultures were maintained at 37 °C and 5% CO2 [73]. For the experiments, all cell types were cultured until confluency.
as §2

In series [18] the test system is promastigote forms of Leishmania amazonensis PH8 strain. The experiment in a line: ROS production by flow cytometry, H2DCFDA, promastigotes. Format: cell-based. The conditions noted are these: exposed to IC50 (AA 10 µM), 24 h.
Where [19] appears, read: lower concentrations (37–100 μM).
[20] abbreviates: exposed to IC50, 24 h, (MT − MC)/MC.

The structures appear in SMILES notation. Like-named read-outs stand apart in the source and are kept apart here. Marks after values point to notes of the source that are not given here.

These results are taken from PMC12730333 (Biology, 2025).

Turning to `C[C@@H]1[C@H](O)[C@@H](C)/C=C/C=C/C=C/C=C/C=C/C=C/C=C/[C@H](O[C@@H]2O[C@H](C)[C@@H](O)[C@H](N)[C@@H]2O)C[C@@H]2O[C@](O)(C[C@@H](O)C[C@@H](O)[C@H](O)CC[C@@H](O)C[C@@H](O)CC(=O)O[C@H]1C)C[C@H](O)[C@H]2C(=O)O` [Amphotericin B], the CC50 with HepG2 cells [1] is 35.2 µM.
With `CN(C)c1ccc2nc3ccc(=[N+](C)C)cc-3sc2c1` [MB, methylene blue, reference compound], the IC50 (as a rule, the concentration that gives 50% inhibition) in [2] was 61.4 ± 4.41 µM; in series [11] it was 15.7 ± 2.23 µM; with promastigotes it was 100 µM. In series [3], the “cell death (7-AAD) in ex vivo amastigotes” value is reported as “highest mortality rate”. The “proliferation of promastigotes over 24 to 168 h” value in [4] (exposed to IC50) is given as “total inhibition from 96 h”. In addition, the “time from which proliferation was significantly (p < 0.05) reduced compared to MT” value in series [4] (exposed to IC50, 24–168 h) is recorded as no less than 24 h. Besides, the CC50 at 24 h is 206 ± 9.19 µM in series [5] (10^5 cells/well, read-out: CC50 J744.G8); greater than 70 µM in series [6] (0.5 × 10^5 cells/well); 141 ± 5.58 µM in [10] (10^5 cells/well); 322 ± 3.74 µM in [13] (0.5 × 10^5 cells/well); 36 ± 3.69 µM in series [17]. Also, the viability (in general, the share of living cells, or the viability signal relative to a control) at 24 h in [5] (lower concentrations (37–100 μM), read-out: viability of J774.G8 cells) is greater than 50%; in [6] (setting [19]), greater than 50%; in [10] (setting [19]), greater than 50%; in [13] (lower concentrations (37–100 μM), read-out: viability of L929 cells), greater than 50%. For the same compound, the CC50 with HepG2 cells [7] was 96 ± 3.28 µM. Further, the “cytotoxicity in fibroblasts and macrophages” value in [8] is given as “no cytotoxicity observed”. Moreover, the “loss of potential (ΔΨm) in HP ex vivo amastigotes / mitochondrial depolarization” value in series [9] (IC50, 24 h) is “up to 61%”. Further, the “decrease of ΔΨm considering both subpopulations” value in [9] (ex vivo amastigotes, LP plus HP, IC50, 24 h) stood at 98%. In addition, the “TMRE MFI, ex vivo Amastigotes High Population” value in series [9] (exposed to IC50, 24 h) was 317,106.50. Also, in series [9] (exposed to IC50, 24 h), the “TMRE MFI, ex vivo Amastigotes Low Population” value stood at 3237.43. In addition, the “VIΔΨm, ex vivo Amastigotes High Population” value in series [9] (setting [20]) is on record as −0.61 ± 0.18. For the same compound, the “VIΔΨm, ex vivo Amastigotes Low Population” value in series [9] (setting [20]) is given as −0.37 ± 0.32. In addition, the “viability of promastigotes (AV/PI)” value in [12] was 12.89%. For the same compound, the “concentration from which significant reduction (p < 0.05) at 48 h” value in [14] (48 h) is no less than 50 µM. In series [14] (72 h), the “concentration from which total viability loss at 72 h” value is no less than 12.50 µM. The “TMRE MFI, Promastigotes High Population” value in series [15] is 56,878.47. Also, in series [15], the “TMRE MFI, Promastigotes Low Population” value is listed as 2737.60 *. For the same compound, the “VIΔΨm, Promastigotes High Population” value in series [15] ((MT − MC)/MC) is reported as 0.02 ± 0.03. The “VIΔΨm, Promastigotes Low Population” value in series [15] ((MT − MC)/MC, negative = depolarization) was −0.41 ± 0.05. Moreover, the “H2DCFDA MFI, Ex Vivo Amastigotes High Population” value in [16] was 140,636.20. Besides, in [16], the “H2DCFDA MFI, Ex Vivo Amastigotes Low Population” value amounted to 3151.50. Moreover, the “VIROS, Ex Vivo Amastigotes High Population” value in series [16] (MT/MC) is listed as 0.90 ± 0.29. Also, in [16] (MT/MC), the “VIROS, Ex Vivo Amastigotes Low Population” value was determined as 1.28 ± 0.46. In addition, the “increase in ROS levels” value in the series on L. amazonensis is listed as 2 fold. Further, the “reduction in ΔΨm” value in the series with L. amazonensis is 60%. Moreover, the “H2DCFDA MFI, Promastigotes High Population” value in series [18] was 1,658,186.80 *. Also, the “H2DCFDA MFI, Promastigotes Low Population” value in series [18] is given as 26,534.03.
